Measurements: ChEMBL document CHEMBL5724914, “Linking interpersonal differences in gut microbiota composition and drug biotransformation activity” (2024)

Experiments:
[1] = (§1) The drug is tested on Z-003 corresponding to pig gut metagenome with ENA study accession number: PRJEB37062 and ENA sample accession number: ERS12561803 for biotransformation under anaerobic condition. The drug concentrations were measured over 9 timepoints collected between 0 and 24 hours of incubation by liquid-chromatography-coupled mass spectrometry (LC–MS); conditions: 2 µM
[2] = human gut metagenome, 24 h, 2 µM
[3] = human gut metagenome, 24 h, 2 µM; remark: listed apart in the source
[4] = human gut metagenome, 24 h, 2 µM; remark: listed apart in the source
[5] = human gut metagenome, 24 h, 2 µM; remark: listed apart in the source
[6] = as §1, with “WLS-098” for “Z-003”, “human” for “pig”, “ERS12561754” for “ERS12561803”; conditions: 2 µM
[7] = as §1, with “Z-029” for “Z-003”, “rat” for “pig”, “ERS12561828” for “ERS12561803”; conditions: 2 µM
[8] = as §1, with “WLS-010” for “Z-003”, “human” for “pig”, “ERS12561743” for “ERS12561803”; conditions: 2 µM
[9] = as §1, with “WLS-310” for “Z-003”, “human” for “pig”, “ERS12561785” for “ERS12561803”; conditions: 2 µM
[10] = as §1, with “Z-020” for “Z-003”, “rabbit” for “pig”, “ERS12561819” for “ERS12561803”; conditions: 2 µM
[11] = human gut metagenome, 24 h, 2 µM; remark: listed apart in the source
[12] = as §1, with “Z-013” for “Z-003”, “rabbit” for “pig”, “ERS12561813” for “ERS12561803”; conditions: 2 µM
[13] = human gut metagenome, 24 h, 2 µM; remark: listed apart in the source
[14] = as §1, with “Z-025” for “Z-003”, “rabbit” for “pig”, “ERS12561824” for “ERS12561803”; conditions: 2 µM
[15] = human gut metagenome, 24 h, 2 µM; remark: listed apart in the source
[16] = human gut metagenome, 24 h, 2 µM; remark: listed apart in the source
[17] = as §1, with “Z-014” for “Z-003”, “rat” for “pig”, “ERS12561814” for “ERS12561803”; conditions: 2 µM
[18] = as §1, with “WLS-052” for “Z-003”, “human” for “pig”, “ERS12561747” for “ERS12561803”; conditions: 2 µM
[19] = as §1, with “WLS-077” for “Z-003”, “human” for “pig”, “ERS12561750” for “ERS12561803”; conditions: 2 µM
[20] = as §1, with “WLS-350” for “Z-003”, “human” for “pig”, “ERS12561789” for “ERS12561803”; conditions: 2 µM
Note: call rule not given here.

Structure (SMILES) | Bacterial Biotransformation [1] | Bacterial Biotransformation [2] | Bacterial Biotransformation [3] | Bacterial Biotransformation [4] | Bacterial Biotransformation [5] | Bacterial Biotransformation [6] | Bacterial Biotransformation [7] | Bacterial Biotransformation [8] | Bacterial Biotransformation [9] | Bacterial Biotransformation [10] | Bacterial Biotransformation [11] | Bacterial Biotransformation [12] | Bacterial Biotransformation [13] | Bacterial Biotransformation [14] | Bacterial Biotransformation [15] | Bacterial Biotransformation [16] | Bacterial Biotransformation [17] | Bacterial Biotransformation [18] | Bacterial Biotransformation [19] | Bacterial Biotransformation [20]
CN1CCC(OC(c2ccccc2)c2ccccc2)CC1 | Compound NOT metabolized | Compound NOT metabolized | Compound NOT metabolized | Compound NOT metabolized | Compound metabolized | Compound metabolized | Compound NOT metabolized | Compound NOT metabolized | Compound metabolized | Compound NOT metabolized | Compound NOT metabolized | Compound NOT metabolized | Compound NOT metabolized | Compound metabolized | Compound metabolized | Compound metabolized | Compound NOT metabolized | Compound NOT metabolized | Compound NOT metabolized | Compound NOT metabolized
CC1=C(CC(=O)O)c2cc(F)ccc2/C1=C\c1ccc([S+](C)[O-])cc1 (centres undefined) | Compound NOT metabolized | Compound metabolized | Compound metabolized | Compound metabolized | Compound metabolized | Compound metabolized | Compound metabolized | Compound metabolized | Compound metabolized | Compound NOT metabolized | Compound NOT metabolized | Compound NOT metabolized | Compound metabolized | Compound NOT metabolized | Compound metabolized | Compound metabolized | Compound NOT metabolized | Compound metabolized | Compound metabolized | Compound metabolized
CCOC(=O)[C@H](CCc1ccccc1)N[C@@H](C)C(=O)N1Cc2ccccc2C[C@H]1C(=O)O | Compound metabolized | Compound metabolized | Compound metabolized | Compound NOT metabolized | Compound metabolized | Compound metabolized | Compound NOT metabolized | Compound metabolized | Compound metabolized | Compound NOT metabolized | Compound NOT metabolized | Compound NOT metabolized | Compound metabolized | Compound NOT metabolized | Compound metabolized | Compound metabolized | Compound NOT metabolized | Compound metabolized | Compound metabolized | Compound NOT metabolized
CCN1CCCC1CNC(=O)c1cc(S(=O)(=O)CC)c(N)cc1OC (centres undefined) [AMISULPRIDE] | Compound metabolized | Compound NOT metabolized | Compound NOT metabolized | Compound NOT metabolized | Compound metabolized | Compound metabolized | Compound NOT metabolized | Compound NOT metabolized | Compound metabolized | Compound NOT metabolized | Compound NOT metabolized | Compound NOT metabolized | Compound metabolized | Compound NOT metabolized | Compound NOT metabolized | Compound NOT metabolized | Compound NOT metabolized | Compound NOT metabolized | Compound NOT metabolized | Compound NOT metabolized

Results, then the compound that gave them:

Bacterial Biotransformation [1] | Bacterial Biotransformation [2] | Bacterial Biotransformation [3] | Bacterial Biotransformation [4] | Bacterial Biotransformation [5] | Bacterial Biotransformation [6] | Bacterial Biotransformation [7] | Bacterial Biotransformation [8] | Bacterial Biotransformation [9] | Bacterial Biotransformation [10] | Bacterial Biotransformation [11] | Bacterial Biotransformation [12] | Bacterial Biotransformation [13] | Bacterial Biotransformation [14] | Bacterial Biotransformation [15] | Bacterial Biotransformation [16] | Bacterial Biotransformation [17] | Bacterial Biotransformation [18] | Bacterial Biotransformation [19] | Bacterial Biotransformation [20] | Structure (SMILES)
Compound NOT metabolized | Compound NOT metabolized | Compound NOT metabolized | Compound metabolized | Compound NOT metabolized | Compound metabolized | Compound NOT metabolized | Compound NOT metabolized | Compound metabolized | Compound NOT metabolized | Compound NOT metabolized | Compound NOT metabolized | Compound metabolized | Compound NOT metabolized | Compound NOT metabolized | Compound NOT metabolized | Compound NOT metabolized | Compound NOT metabolized | Compound metabolized | Compound NOT metabolized | CC(C)NCC(O)COc1ccc(CC(N)=O)cc1 (centres undefined) [ATENOLOL]
Compound NOT metabolized | Compound NOT metabolized | Compound metabolized | Compound NOT metabolized | Compound metabolized | Compound metabolized |  | Compound metabolized | Compound metabolized | Compound NOT metabolized | Compound metabolized | Compound NOT metabolized | Compound metabolized | Compound NOT metabolized | Compound metabolized | Compound metabolized | Compound NOT metabolized | Compound metabolized | Compound NOT metabolized | Compound metabolized | O=C1N=C([O-])NC1(c1ccccc1)c1ccccc1.[Na+] [PHENYTOIN SODIUM]
Compound NOT metabolized | Compound NOT metabolized | Compound metabolized | Compound NOT metabolized | Compound NOT metabolized | Compound NOT metabolized | Compound NOT metabolized |  | Compound metabolized | Compound NOT metabolized | Compound NOT metabolized | Compound NOT metabolized | Compound NOT metabolized |  | Compound NOT metabolized | Compound NOT metabolized | Compound NOT metabolized |  |  | Compound metabolized | CN(C/C=C/C#CC(C)(C)C)Cc1cccc2ccccc12 [TERBINAFINE]
Compound metabolized | Compound NOT metabolized | Compound metabolized | Compound metabolized | Compound metabolized | Compound metabolized | Compound metabolized | Compound metabolized | Compound metabolized | Compound metabolized | Compound metabolized | Compound metabolized | Compound metabolized | Compound metabolized |  | Compound metabolized | Compound metabolized | Compound metabolized | Compound metabolized | Compound metabolized | CCS(=O)(=O)CCn1c([N+](=O)[O-])cnc1C [TINIDAZOLE]
